{"source": "paper PMC11374673", "about": "“Discovery of isoquinoline sulfonamides as allosteric gyrase inhibitors with activity against fluoroquinolone-resistant bacteria” (Nature Chemistry, 2024)", "key": {"E. coli W3110": {"system": "E. coli W3110", "experiment": "Checkerboard assay with PMBN;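 as to checkerboard plate reading, Average values: OD600 read after 20 h incubation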;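 as to checkerboard plate reading, replicate wells: OD600 read after 20 h incubation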"}, "E. coli ATCC 25922": {"system": "E. coli ATCC 25922", "experiment": "MIC by broth microdilution", "format": "cell-based", "conditions": "Escherichia coli, ATCC25922, read-out: MIC E. coli ATCC 25922", "procedure": "(§1) MIC was determined by broth microdilution. Single-colony cultures were grown to exponential phase (OD600 of 0.5) aerobically at 37 °C. In case of strains from the Keio collection, 50 µg ml^−1 kanamycin was supplemented to the media to ascertain a homogeneous population. The bacterial suspensions were diluted 100-fold in CAMHB and 50 µl was added to a twofold serial dilution series of test compounds (50 µl per well) in polypropylene 96-well microtitre plates to reach a volume of 100 µl. The plates were sealed with breathable membranes and incubated overnight at 37 °C with constant shaking (600 r.p.m.)."}, "A. baumannii ATCC BAA747": {"system": "A. baumannii ATCC BAA747", "experiment": "MIC by broth microdilution", "format": "cell-based", "conditions": "Acinetobacter baumannii, ATCCBAA747; read-out: MIC A. baumannii ATCC BAA747", "procedure": "as §1, with “r.p.m.). The MIC was determined as the lowest concentration at which no visible bacterial growth was observed as compared with the inoculum controls from the median of a minimum of triplicates.” for “r.p.m.).”"}, "[1]": {"system": "S. aureus ATCC 29213 / ATCC BAA1717", "experiment": "MIC by broth microdilution", "format": "cell-based", "conditions": "Staphylococcus aureus", "procedure": "as §1, with “r.p.m.). The MIC was determined as the lowest concentration at which no visible bacterial growth was observed as compared with the inoculum controls from the median of a minimum of triplicates.” for “r.p.m.).”"}, "P. aeruginosa ATCC 27853": {"system": "P. aeruginosa ATCC 27853", "experiment": "MIC by broth microdilution", "format": "cell-based", "conditions": "Pseudomonas aeruginosa, ATCC27853; read-out: MIC P. aeruginosa ATCC 27853", "procedure": "as §1, with “r.p.m.). The MIC was determined as the lowest concentration at which no visible bacterial growth was observed as compared with the inoculum controls from the median of a minimum of triplicates.” for “r.p.m.).”"}}, "note": "Where “and” joins values, the source holds several entries; their conditions need not be identical. Equal entries are not always repeated. Entries after “also recorded” stand apart in the source; their conditions may differ. Where two headings read alike, the source gives them in different places.", "data": [{"smiles": "O=S(=O)(NC[C@@H]1CC[C@H](c2ccc(-c3cccnc3)cc2)N1)c1cccc2cnccc12", "note": "[LEI-800]", "values": [{"measurement": "checkerboard plate reading, Average values", "setting": "E. coli W3110; LEI-800 0.390625 µM + PMBN 2 µM (by position)", "value": 0.4461}, {"measurement": "checkerboard plate reading, Average values", "setting": "E. coli W3110; LEI-800 0.390625 µM + PMBN 4 µM (by position)", "value": 0.399}, {"measurement": "checkerboard plate reading, Average values", "setting": "E. coli W3110; LEI-800 0.390625 µM + PMBN 8 µM (by position)", "value": 0.3657}, {"measurement": "checkerboard plate reading, Average values", "setting": "E. coli W3110; LEI-800 0.390625 µM + PMBN 16 µM (by position)", "value": 0.3222}, {"measurement": "checkerboard plate reading, Average values", "setting": "E. coli W3110; LEI-800 0.390625 µM + PMBN 32 µM (by position)", "value": 0.2778}, {"measurement": "checkerboard plate reading, Average values", "setting": "E. coli W3110; LEI-800 0.78125 µM + PMBN 0 µM (by position)", "value": 0.4191}, {"measurement": "checkerboard plate reading, Average values", "setting": "E. coli W3110; LEI-800 0.78125 µM + PMBN 0.5 µM (by position)", "value": 0.3258}, {"measurement": "checkerboard plate reading, Average values", "setting": "E. coli W3110; LEI-800 0.78125 µM + PMBN 1 µM (by position)", "value": 0.2348}, {"measurement": "checkerboard plate reading, Average values", "setting": "E. coli W3110; LEI-800 0.78125 µM + PMBN 2 µM (by position)", "value": 0.1359}, {"measurement": "checkerboard plate reading, Average values", "setting": "E. coli W3110; LEI-800 0.78125 µM + PMBN 4 µM (by position)", "value": 0.1369}, {"measurement": "checkerboard plate reading, Average values", "setting": "E. coli W3110; LEI-800 0.78125 µM + PMBN 8 µM (by position)", "value": 0.1405}, {"measurement": "checkerboard plate reading, Average values", "setting": "E. coli W3110; LEI-800 0.78125 µM + PMBN 16 µM (by position)", "value": 0.1463}, {"measurement": "checkerboard plate reading, Average values", "setting": "E. coli W3110; LEI-800 0.78125 µM + PMBN 32 µM (by position)", "value": 0.1515}, {"measurement": "checkerboard plate reading, Average values", "setting": "E. coli W3110; LEI-800 1.5625 µM + PMBN 0 µM (by position)", "value": 0.3277}, {"measurement": "checkerboard plate reading, Average values", "setting": "E. coli W3110; LEI-800 1.5625 µM + PMBN 0.5 µM (by position)", "value": 0.2628}, {"measurement": "checkerboard plate reading, replicate wells", "setting": "E. coli W3110; LEI-800 1.5625 µM + PMBN 1 µM", "value": 0.1569}, {"measurement": "checkerboard plate reading, Average values", "setting": "E. coli W3110; LEI-800 1.5625 µM + PMBN 1 µM (by position)", "value": 0.2051}, {"measurement": "checkerboard plate reading, replicate wells", "setting": "E. coli W3110; LEI-800 1.5625 µM + PMBN 2 µM", "value": "0.1524 and 0.1433 and 0.1454"}, {"measurement": "checkerboard plate reading, Average values", "setting": "E. coli W3110; LEI-800 1.5625 µM + PMBN 2 µM (by position)", "value": 0.1478}, {"measurement": "checkerboard plate reading, replicate wells", "setting": "E. coli W3110; LEI-800 1.5625 µM + PMBN 4 µM", "value": "0.1452 and 0.1502 and 0.1384"}, {"measurement": "checkerboard plate reading, Average values", "setting": "E. coli W3110; LEI-800 1.5625 µM + PMBN 4 µM (by position)", "value": 0.1494}, {"measurement": "checkerboard plate reading, Average values", "setting": "E. coli W3110; LEI-800 1.5625 µM + PMBN 8 µM (by position)", "value": 0.1497}, {"measurement": "checkerboard plate reading, Average values", "setting": "E. coli W3110; LEI-800 1.5625 µM + PMBN 16 µM (by position)", "value": 0.1521}, {"measurement": "checkerboard plate reading, Average values", "setting": "E. coli W3110; LEI-800 1.5625 µM + PMBN 32 µM (by position)", "value": 0.1528}, {"measurement": "checkerboard plate reading, replicate wells", "setting": "E. coli W3110; LEI-800 3.125 µM + PMBN 0 µM", "value": "0.2026 and 0.2019 and 0.1984"}, {"measurement": "checkerboard plate reading, Average values", "setting": "E. coli W3110; LEI-800 3.125 µM + PMBN 0 µM (by position)", "value": 0.201}, {"measurement": "checkerboard plate reading, replicate wells", "setting": "E. coli W3110; LEI-800 3.125 µM + PMBN 0.5 µM", "value": "0.1489 and 0.151 and 0.1511"}, {"measurement": "checkerboard plate reading, replicate wells", "setting": "E. coli W3110; LEI-800 3.125 µM + PMBN 1 µM", "value": "0.1556 and 0.1491 and 0.1492"}, {"measurement": "checkerboard plate reading, Average values", "setting": "E. coli W3110; LEI-800 3.125 µM + PMBN 1 µM (by position)", "value": 0.1661}, {"measurement": "checkerboard plate reading, replicate wells", "setting": "E. coli W3110; LEI-800 3.125 µM + PMBN 2 µM", "value": "0.1469 and 0.1488 and 0.1457"}, {"measurement": "checkerboard plate reading, Average values", "setting": "E. coli W3110; LEI-800 3.125 µM + PMBN 2 µM (by position)", "value": 0.1503}, {"measurement": "checkerboard plate reading, replicate wells", "setting": "E. coli W3110; LEI-800 3.125 µM + PMBN 4 µM", "value": "0.1605 and 0.1486 and 0.1531"}, {"measurement": "checkerboard plate reading, Average values", "setting": "E. coli W3110; LEI-800 3.125 µM + PMBN 4 µM (by position)", "value": 0.1504}, {"measurement": "checkerboard plate reading, replicate wells", "setting": "E. coli W3110; LEI-800 3.125 µM + PMBN 8 µM", "value": "0.1502 and 0.1529 and 0.1524"}, {"measurement": "checkerboard plate reading, Average values", "setting": "E. coli W3110; LEI-800 3.125 µM + PMBN 8 µM (by position)", "value": 0.1498}, {"measurement": "checkerboard plate reading, replicate wells", "setting": "E. coli W3110; LEI-800 3.125 µM + PMBN 16 µM", "value": "0.1512 and 0.151 and 0.1573"}, {"measurement": "checkerboard plate reading, Average values", "setting": "E. coli W3110; LEI-800 3.125 µM + PMBN 16 µM (by position)", "value": 0.1513}, {"measurement": "checkerboard plate reading, replicate wells", "setting": "E. coli W3110; LEI-800 3.125 µM + PMBN 32 µM", "value": "0.1461 and 0.1492 and 0.1481"}, {"measurement": "checkerboard plate reading, Average values", "setting": "E. coli W3110; LEI-800 3.125 µM + PMBN 32 µM (by position)", "value": 0.1506}, {"measurement": "MIC E. coli + 8 μM PMBN", "setting": "E. coli W3110; LPS disruption (pharmacological)", "value": 0.4, "unit": "µM"}, {"measurement": "synergy with PMBN", "setting": "E. coli W3110; checkerboard", "value": "potentiates; also recorded: Clear synergy"}, {"measurement": "MSC", "setting": "E. coli W3110; checkerboard with PMBN, E. coli W3110", "value": 0.39, "unit": "µM"}, {"measurement": "MIC", "setting": "E. coli ATCC 25922", "value": 6.25, "unit": "µM"}, {"measurement": "MIC", "setting": "A. baumannii ATCC BAA747", "value": 25, "unit": "µM"}, {"measurement": "MIC", "setting": "[1]; read-out: MIC S. aureus ATCC 29213", "value": "> 50", "unit": "µM"}, {"measurement": "MIC", "setting": "[1]; read-out: MIC S. aureus ATCC BAA1717", "value": "> 50", "unit": "µM"}, {"measurement": "MIC", "setting": "P. aeruginosa ATCC 27853", "value": "> 50", "unit": "µM"}]}]}
